Counter-ions that a name gives are not always drawn. Like-named read-outs stand apart in the source and are kept apart here.
Tested on: HIV-1 strain 92HT599
Assay: Antiviral activity, p24 estimation in HIV-1 92HT599 infected MT2 cells
Type: cell-based
Conditions: ~96 hours
Experimental: MT2 cells were infected with HIV-1 strain 92HT599 (10 TCID 50/30000 cells). The infected cells were plated at the concentration of ˜30,000 cells per well in 96 well plate. Test compound was added to the micro plate in defined format with the final concentration of DMSO (vehicle) is not more than 1%. Incubation was carried out in CO2 incubator for ˜96 hours for viral infection. At the end of incubation period an aliquot from each well was taken for p24 estimation. The quantitation of p24 is an index for antiviral activity of the compound. Percent inhibition was calculated with reference to control values (vehicle controls). P-24 estimation was carried out using Advance biosciences kit as per the procedure detailed by supplier.

[1] = Human immunodeficiency virus 1, 0% serum, read-out: 92HT599-Antiviral activity IC50 (nM) 0%
[2] = Human immunodeficiency virus 1, 40% serum, read-out: 92HT599-Antiviral activity IC50 (nM) 40%

Structure (SMILES): CC(C)C1=C2[C@H]3CC[C@@H]4[C@@]5(C)CC[C@H](OC(=O)[C@H]6C[C@@H](C(=O)O)C6(C)C)C(C)(C)[C@@H]5CC[C@@]4(C)[C@]3(C)CC[C@@]2(NC(=O)N(CCN(C)C)Cc2ccc(Cl)cc2)CC1=O [Example 1, (1R,3S)-3-((((3aR,5aR,5bR,7aR,9S,11aR,11bR,13aS)-3a-(3-(4-chlorobenzyl)-3-(2-(dimethylamino)ethyl)ureido)-1-isopropyl-5a,5b,8,8,11a-pentamethyl-2-oxo-3,3a,4,5,5a,5b,6,7,7a,8,9,10,11,11a,11b,12,13,13a-octadecahydro-2H-cyclopenta[a]chrysen-9-yl)oxy)carbonyl)-2,2-dimethylcyclobutane-1-carboxylic acid hydrochloride]
- IC50 [1]: < 5 nM
- IC50 [2]: > 50 nM

Structure (SMILES): CC(C)C1=C2[C@H]3CC[C@@H]4[C@@]5(C)CC[C@H](OC(=O)[C@H]6C[C@@H](C(=O)O)C6(C)C)C(C)(C)[C@@H]5CC[C@@]4(C)[C@]3(C)CC[C@@]2(NC(=O)N2CCC[C@H]2c2ncc(-c3ccccc3)n2CCN(C)C)CC1=O [Example 2, (1R,3S)-3-((((3aR,5aR,5bR,7aR,9S,11aR,11bR,13aS)-3a-((S)-2-(1-(2-(dimethylamino)ethyl)-5-phenyl-1H-imidazol-2-yl)pyrrolidine-1-carboxamido)-1-isopropyl-5a,5b,8,8,11a-pentamethyl-2-oxo-3,3a,4,5,5a,5b,6,7,7a,8,9,10,11,11a,11b,12,13,13a-octadecahydro-2H-cyclopenta[a]chrysen-9-yl)oxy)carbonyl)-2,2-dimethylcyclobutane-1-carboxylic acid]
- IC50 [1]: < 5 nM
- IC50 [2]: < 30 nM

Structure (SMILES): CC(C)C1=C2[C@H]3CC[C@@H]4[C@@]5(C)CC[C@H](OC(=O)[C@H]6C[C@@H](C(=O)O)C6(C)C)C(C)(C)[C@@H]5CC[C@@]4(C)[C@]3(C)CC[C@@]2(NC(=O)N2CCC[C@H]2c2ncc(-c3ccccc3)[nH]2)CC1=O [Example 3, (1R,3S)-3-((((3aR,5aR,5bR,7aR,9S,11aR,11bR,13aS)-1-isopropyl-5a,5b,8,8,11a-pentamethyl-2-oxo-3a-((S)-2-(5-phenyl-1H-imidazol-2-yl)pyrrolidine-1-carboxamido)-3,3a,4,5,5a,5b,6,7,7a,8,9,10,11,11a,11b,12,13,13a-octadecahydro-2H-cyclopenta[a]chrysen-9-yl)oxy)carbonyl)-2,2-dimethylcyclobutane-1-carboxylic acid]
- IC50 [1]: 5.01 to 10 nM
- IC50 [2]: 30 to 50 nM

Structure (SMILES): CC(C)C1=C2[C@H]3CC[C@@H]4[C@@]5(C)CC[C@H](OC(=O)[C@H]6C[C@@H](C(=O)O)C6(C)C)C(C)(C)[C@@H]5CC[C@@]4(C)[C@]3(C)CC[C@@]2(NC(=O)NC2(c3ccc(Cl)cc3)CC2)CC1=O [Example 4, (1R,3S)-3-((((3aR,5aR,5bR,7aR,9S,11aR,11bR,13aS)-3a-(3-(1-(4-chlorophenyl)cyclopropyl)ureido)-1-isopropyl-5a,5b,8,8,11a-pentamethyl-2-oxo-3,3a,4,5,5a,5b,6,7,7a,8,9,10,11,11a,11b,12,13,13a-octadecahydro-2H-cyclopenta[a]chrysen-9-yl)oxy)carbonyl)-2,2-dimethylcyclobutane-1-carboxylic acid]
- IC50 [1]: < 5 nM
- IC50 [2]: > 50 nM

Structure (SMILES): CC(C)C1=C2[C@H]3CC[C@@H]4[C@@]5(C)CC[C@H](OC(=O)[C@H]6C[C@@H](C(=O)O)C6(C)C)C(C)(C)[C@@H]5CC[C@@]4(C)[C@]3(C)CC[C@@]2(NC(=O)NC(C)(C)c2ccc(Cl)cc2)CC1=O [Example 5, (1R,3S)-3-((((3aR,5aR,5bR,7aR,9S,11aR,11bR,13aS)-3a-(3-(2-(4-chlorophenyl)propan-2-yl)ureido)-1-isopropyl-5a,5b,8,8,11a-pentamethyl-2-oxo-3,3a,4,5,5a,5b,6,7,7a,8,9,10,11,11a,11b,12,13,13a-octadecahydro-2H-cyclopenta[a]chrysen-9-yl)oxy)carbonyl)-2,2-dimethylcyclobutane-1-carboxylic acid]
- IC50 [1]: < 5 nM
- IC50 [2]: < 30 nM

Structure (SMILES): CC(C)C1=C2[C@H]3CC[C@@H]4[C@@]5(C)CC[C@H](OC(=O)[C@H]6C[C@@H](C(=O)O)C6(C)C)C(C)(C)[C@@H]5CC[C@@]4(C)[C@]3(C)CC[C@@]2(NC(=O)N(CCN(C)C)CC2(c3ccc(Cl)cc3)CC2)CC1=O [Example 6, (1R,3S)-3-((((3aR,5aR,5bR,7aR,9S,11aR,11bR,13aS)-3a-(3-((1-(4-chlorophenyl)cyclopropyl)methyl)-3-(2-(dimethylamino)ethyl)ureido)-1-isopropyl-5a,5b,8,8,11a-pentamethyl-2-oxo-3,3a,4,5,5a,5b,6,7,7a,8,9,10,11,11a,11b,12,13,13a-octadecahydro-2H-cyclopenta[a]chrysen-9-yl)oxy)carbonyl)-2,2-dimethylcyclobutane-1-carboxylic acid]
- IC50 [1]: < 5 nM
- IC50 [2]: 30 to 50 nM

Structure (SMILES): CC(C)C1=C2[C@H]3CC[C@@H]4[C@@]5(C)CC[C@H](OC(=O)[C@H]6C[C@@H](C(=O)O)C6(C)C)C(C)(C)[C@@H]5CC[C@@]4(C)[C@]3(C)CC[C@@]2(NC(=O)NCc2ccc(Cl)cc2)CC1=O [Example 7, (1R,3S)-3-((((3aR,5aR,5bR,7aR,9S,11aR,11bR,13aS)-3a-(3-(4-chlorobenzyl)ureido)-1-isopropyl-5a,5b,8,8,11a-pentamethyl-2-oxo-3,3a,4,5,5a,5b,6,7,7a,8,9,10,11,11a,11b,12,13,13a-octadecahydro-2H-cyclopenta[a]chrysen-9-yl)oxy)carbonyl)-2,2-dimethylcyclobutane-1-carboxylic acid]
- IC50 [1]: 5.01 to 10 nM
- IC50 [2]: 30 to 50 nM

Structure (SMILES): Cc1nnc(C(C)C)n1C1CC2CCC(C1)N2C(=O)N[C@@]12CC[C@]3(C)[C@H](CC[C@@H]4[C@@]5(C)CC[C@H](OC(=O)[C@H]6C[C@@H](C(=O)O)C6(C)C)C(C)(C)[C@@H]5CC[C@]43C)C1=C(C(C)C)C(=O)C2 (stereo partly drawn) [Example 8, (1R,3S)-3-((((3aR,5aR,5bR,7aR,9S,11aR,11bR,13aS)-1-isopropyl-3a-((1R,3S,5S)-3-(3-isopropyl-5-methyl-4H-1,2,4-triazol-4-yl)-8-azabicyclo[3.2.1]octane-8-carboxamido)-5a,5b,8,8,11a-pentamethyl-2-oxo-3,3a,4,5,5a,5b,6,7,7a,8,9,10,11,11a,11b,12,13,13a-octadecahydro-2H-cyclopenta[a]chrysen-9-yl)oxy)carbonyl)-2,2-dimethylcyclobutane-1-carboxylic acid]
- IC50 [1]: 5.01 to 10 nM
- IC50 [2]: > 50 nM

Structure (SMILES): CC(C)C1=C2[C@H]3CC[C@@H]4[C@@]5(C)CC[C@H](OC(=O)[C@H]6C[C@@H](C(=O)O)C6(C)C)C(C)(C)[C@@H]5CC[C@@]4(C)[C@]3(C)CC[C@@]2(NC(=O)NC(C)(C)c2ncc(-c3ccccc3)[nH]2)CC1=O [Example 10, (1R,3S)-3-((((3aR,5aR,5bR,7aR,9S,11aR,11bR,13aS)-1-isopropyl-5a,5b,8,8,11a-pentamethyl-2-oxo-3a-(3-(2-(5-phenyl-1H-imidazol-2-yl)propan-2-yl)ureido)-3,3a,4,5,5a,5b,6,7,7a,8,9,10,11,11a,11b,12,13,13a-octadecahydro-2H-cyclopenta[a]chrysen-9-yl)oxy)carbonyl)-2,2-dimethylcyclobutane-1-carboxylic acid]
- IC50 [1]: < 5 nM
- IC50 [2]: < 30 nM

Structure (SMILES): CC(C)C1=C2[C@H]3CC[C@@H]4[C@@]5(C)CC[C@H](OC(=O)[C@H]6C[C@@H](C(=O)O)C6(C)C)C(C)(C)[C@@H]5CC[C@@]4(C)[C@]3(C)CC[C@@]2(NC(=O)N(CCN2CCCCC2)Cc2ccc(Cl)cc2)CC1=O [Example 11, (1R,3S)-3-((((3aR,5aR,5bR,7aR,9S,11aR,11bR,13aS)-3a-(3-(4-chlorobenzyl)-3-(2-(piperidin-1-yl)ethyl)ureido)-1-isopropyl-5a,5b,8,8,11a-pentamethyl-2-oxo-3,3a,4,5,5a,5b,6,7,7a,8,9,10,11,11a,11b,12,13,13a-octadecahydro-2H-cyclopenta[a]chrysen-9-yl)oxy)carbonyl)-2,2-dimethylcyclobutane-1-carboxylic acid hydrochloride]
- IC50 [1]: < 5 nM
- IC50 [2]: 30 to 50 nM

Structure (SMILES): Cc1nnc(C(C)C)n1CCN1CCN(C(=O)N[C@@]23CC[C@]4(C)[C@H](CC[C@@H]5[C@@]6(C)CC[C@H](OC(=O)[C@H]7C[C@@H](C(=O)O)C7(C)C)C(C)(C)[C@@H]6CC[C@]54C)C2=C(C(C)C)C(=O)C3)CC1 [Example 12, (1R,3S)-3-((((3aR,5aR,5bR,7aR,9S,11aR,11bR,13aS)-1-isopropyl-3a-(4-(2-(3-isopropyl-5-methyl-4H-1,2,4-triazol-4-yl)ethyl)piperazine-1-carboxamido)-5a,5b,8,8,11a-pentamethyl-2-oxo-3,3a,4,5,5a,5b,6,7,7a,8,9,10,11,11a,11b,12,13,13a-octadecahydro-2H-cyclopenta[a]chrysen-9-yl)oxy)carbonyl)-2,2-dimethycyclobutane-1-carboxylic acid]
- IC50 [1]: > 10 nM
- IC50 [2]: > 50 nM

Structure (SMILES): CC(C)C1=C2[C@H]3CC[C@@H]4[C@@]5(C)CC[C@H](OC(=O)[C@H]6C[C@@H](C(=O)O)C6(C)C)C(C)(C)[C@@H]5CC[C@@]4(C)[C@]3(C)CC[C@@]2(NC(=O)N2CCC[C@H]2CN2CCCC2)CC1=O [Example 13, (1R,3S)-3-((((3aR,5aR,5bR,7aR,9S,11aR,11bR,13aS)-1-isopropyl-5a,5b,8,8,11a-pentamethyl-2-oxo-3a-((S)-2-(pyrrolidin-1-ylmethyl)pyrrolidine-1-carboxamido)-3,3a,4,5,5a,5b,6,7,7a,8,9,10,11,11a,11b,12,13,13a-octadecahydro-2H-cyclopenta[a]chrysen-9-yl)oxy)carbonyl)-2,2-dimethylcyclobutane-1-carboxylic acid]
- IC50 [1]: < 5 nM
- IC50 [2]: > 50 nM
